Values quoted from earlier work in patent US7383946B2 (priority 2004, dated 2008).

[O][Cl+][O-] [Chlorine dioxide, chlorine dioxide]
concentration at which chlorine dioxide is stable in water and aqueous solutions: approximately 10 g/L
